Tested on: HUVEC/MSC spheroids viability
Experiment: Human HUVEC/MSC cell line growth inhibition [KRAS2];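 as to viability, T/C: percent of DMSO vehicle control luminescence so 100% = untreated viability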
Conditions: for IC50: curve of first compound; for viability, T/C: stronger effect = lower value
How it was run: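 Endothelial cells (HUVEC) plus mesenchymal stem cells, cultured at 37 °C/5% CO2 and assembled into spheroids without cancer cells, served as a stromal control. Drug pairs and single agents spanned half-log ranges anchored to clinical Cmax.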

[1] = second compound 0.0316 µM, first compound 0.0316 µM
[2] = second compound 0.0316 µM, first compound 0.1 µM
[3] = second compound 0.1 µM, first compound 0.0316 µM
[4] = second compound 0.1 µM, first compound 0.1 µM
[5] = second compound 0.316 µM, first compound 0.0316 µM
[6] = second compound 0.316 µM, first compound 0.1 µM
[7] = second compound 1 µM, first compound 0.0316 µM
[8] = second compound 1 µM, first compound 0.1 µM
[9] = second compound 3.16 µM, first compound 0.0316 µM
[10] = second compound 3.16 µM, first compound 0.1 µM
[11] = second compound 10 µM, first compound 0.0316 µM
[12] = second compound 10 µM, first compound 0.1 µM

`CC(=O)OC12COC1CC(O)C1(C)C(=O)C(O)C3=C(C)C(OC(=O)C(O)C(NC(=O)OC(C)(C)C)c4ccccc4)CC(O)(C(OC(=O)c4ccccc4)C21)C3(C)C` (stereo unspecified) + CC1OCC2(CCN(c3cnc(Sc4ccnc(N)c4Cl)c(N)n3)CC2)C1N showed an IC50 (second compound 0.0316 µM) of over 3 µM, an IC50 (second compound 0.1 µM) of over 3 µM and an IC50 (second compound 0.316 µM) of over 3 µM. The IC50 (second compound 1 µM) was over 3 µM, the IC50 (second compound 3.16 µM) was over 3 µM and the IC50 (second compound 10 µM) was 0.176 µM. It also gave a viability, T/C (second compound 0.0316 µM, first compound 0.00949 µM) of 58%, a viability, T/C (second compound 0.0316 µM, first compound 0.03 µM) of 65.1% and a viability, T/C (second compound 0.0316 µM, first compound 0.0949 µM) of 67.3%. It also gave a viability, T/C (second compound 0.0316 µM, first compound 0.3 µM) of 58.4%, a viability, T/C (second compound 0.0316 µM, first compound 0.949 µM) of 68.1% and a viability, T/C (second compound 0.0316 µM, first compound 3 µM) of 73.6%. For the same compound, the viability, T/C (second compound 0.1 µM, first compound 0.00949 µM) was 67%, the viability, T/C (second compound 0.1 µM, first compound 0.03 µM) was 66% and the viability, T/C (second compound 0.1 µM, first compound 0.0949 µM) was 71.4%. For the same compound, the viability, T/C (second compound 0.1 µM, first compound 0.3 µM) was 57.9%, the viability, T/C (second compound 0.1 µM, first compound 0.949 µM) was 73.2% and the viability, T/C (second compound 0.1 µM, first compound 3 µM) was 72.5%. The viability, T/C (second compound 0.316 µM, first compound 0.00949 µM) was 56.1%, the viability, T/C (second compound 0.316 µM, first compound 0.03 µM) was 63.3% and the viability, T/C (second compound 0.316 µM, first compound 0.0949 µM) was 50%. For the same compound, the viability, T/C (second compound 0.316 µM, first compound 0.3 µM) was 53.6%, the viability, T/C (second compound 0.316 µM, first compound 0.949 µM) was 62.5% and the viability, T/C (second compound 0.316 µM, first compound 3 µM) was 68.4%. It also gave a viability, T/C (second compound 1 µM, first compound 0.00949 µM) of 67.2%, a viability, T/C (second compound 1 µM, first compound 0.03 µM) of 58% and a viability, T/C (second compound 1 µM, first compound 0.0949 µM) of 47.1%. For the same compound, the viability, T/C (second compound 1 µM, first compound 0.3 µM) was 52.1%, the viability, T/C (second compound 1 µM, first compound 0.949 µM) was 59% and the viability, T/C (second compound 1 µM, first compound 3 µM) was 58.5%. It also gave a viability, T/C (second compound 3.16 µM, first compound 0.00949 µM) of 49.8%, a viability, T/C (second compound 3.16 µM, first compound 0.03 µM) of 59.5% and a viability, T/C (second compound 3.16 µM, first compound 0.0949 µM) of 49.8%. The viability, T/C (second compound 3.16 µM, first compound 0.3 µM) was 54.2%, the viability, T/C (second compound 3.16 µM, first compound 0.949 µM) was 48% and the viability, T/C (second compound 3.16 µM, first compound 3 µM) was 56.2%. The viability, T/C (second compound 10 µM, first compound 0.00949 µM) was 55.6%, the viability, T/C (second compound 10 µM, first compound 0.03 µM) was 61.8% and the viability, T/C (second compound 10 µM, first compound 0.0949 µM) was 41.7%. It also gave a viability, T/C (second compound 10 µM, first compound 0.3 µM) of 50.3%, a viability, T/C (second compound 10 µM, first compound 0.949 µM) of 50.9% and a viability, T/C (second compound 10 µM, first compound 3 µM) of 46.7%.
`CN(C)C/C=C/C(=O)Nc1cc2c(Nc3ccc(F)c(Cl)c3)ncnc2cc1O[C@H]1CCOC1` + CC1OCC2(CCN(c3cnc(Sc4ccnc(N)c4Cl)c(N)n3)CC2)C1N showed an IC50 (second compound 0.0316 µM) of over 0.1 µM, an IC50 (second compound 0.1 µM) of over 0.1 µM and an IC50 (second compound 0.316 µM) of over 0.1 µM. For the same compound, the IC50 (second compound 1 µM) was over 0.1 µM, the IC50 (second compound 3.16 µM) was over 0.1 µM and the IC50 (second compound 10 µM) was over 0.1 µM. For the same compound, the viability, T/C (second compound 0.0316 µM, first compound 0.000316 µM) was 110%, the viability, T/C (second compound 0.0316 µM, first compound 0.001 µM) was 123% and the viability, T/C (second compound 0.0316 µM, first compound 0.00316 µM) was 121%. For the same compound, the viability, T/C (second compound 0.0316 µM, first compound 0.01 µM) was 103%, the viability, T/C [1] was 99.1% and the viability, T/C [2] was 117%. It also gave a viability, T/C (second compound 0.1 µM, first compound 0.000316 µM) of 108%, a viability, T/C (second compound 0.1 µM, first compound 0.001 µM) of 148% and a viability, T/C (second compound 0.1 µM, first compound 0.00316 µM) of 105%. The viability, T/C (second compound 0.1 µM, first compound 0.01 µM) was 110%, the viability, T/C [3] was 98.7% and the viability, T/C [4] was 126%. For the same compound, the viability, T/C (second compound 0.316 µM, first compound 0.000316 µM) was 108%, the viability, T/C (second compound 0.316 µM, first compound 0.001 µM) was 114% and the viability, T/C (second compound 0.316 µM, first compound 0.00316 µM) was 99.4%. It also gave a viability, T/C (second compound 0.316 µM, first compound 0.01 µM) of 99.3%, a viability, T/C [5] of 101% and a viability, T/C [6] of 126%. For the same compound, the viability, T/C (second compound 1 µM, first compound 0.000316 µM) was 92.6%, the viability, T/C (second compound 1 µM, first compound 0.001 µM) was 118% and the viability, T/C (second compound 1 µM, first compound 0.00316 µM) was 106%. The viability, T/C (second compound 1 µM, first compound 0.01 µM) was 86.8%, the viability, T/C [7] was 102% and the viability, T/C [8] was 108%. The viability, T/C (second compound 3.16 µM, first compound 0.000316 µM) was 79.7%, the viability, T/C (second compound 3.16 µM, first compound 0.001 µM) was 96.2% and the viability, T/C (second compound 3.16 µM, first compound 0.00316 µM) was 77.9%. The viability, T/C (second compound 3.16 µM, first compound 0.01 µM) was 94.1%, the viability, T/C [9] was 89.2% and the viability, T/C [10] was 103%. The viability, T/C (second compound 10 µM, first compound 0.000316 µM) was 71.7%, the viability, T/C (second compound 10 µM, first compound 0.001 µM) was 85.9% and the viability, T/C (second compound 10 µM, first compound 0.00316 µM) was 66.5%. The viability, T/C (second compound 10 µM, first compound 0.01 µM) was 66.3%, the viability, T/C [11] was 80.9% and the viability, T/C [12] was 89.3%.
Compound `O=C(c1cc(Cc2n[nH]c(=O)c3ccccc23)ccc1F)N1CCN(C(=O)C2CC2)CC1` + CC1OCC2(CCN(c3cnc(Sc4ccnc(N)c4Cl)c(N)n3)CC2)C1N has an IC50 (second compound 0.0316 µM) of over 10 µM, an IC50 (second compound 0.1 µM) of over 10 µM and an IC50 (second compound 0.316 µM) of over 10 µM. It also gave an IC50 (second compound 1 µM) of over 10 µM, an IC50 (second compound 3.16 µM) of over 10 µM and an IC50 (second compound 10 µM) of over 10 µM. It also gave a viability, T/C [1] of 102%, a viability, T/C [2] of 117% and a viability, T/C (second compound 0.0316 µM, first compound 0.316 µM) of 100%. For the same compound, the viability, T/C (second compound 0.0316 µM, first compound 1 µM) was 98.7%, the viability, T/C (second compound 0.0316 µM, first compound 3.16 µM) was 101% and the viability, T/C (second compound 0.0316 µM, first compound 10 µM) was 132%. The viability, T/C [3] was 101%, the viability, T/C [4] was 101% and the viability, T/C (second compound 0.1 µM, first compound 0.316 µM) was 104%. The viability, T/C (second compound 0.1 µM, first compound 1 µM) was 108%, the viability, T/C (second compound 0.1 µM, first compound 3.16 µM) was 109% and the viability, T/C (second compound 0.1 µM, first compound 10 µM) was 94.6%. For the same compound, the viability, T/C [5] was 102%, the viability, T/C [6] was 119% and the viability, T/C (second compound 0.316 µM, first compound 0.316 µM) was 99%. For the same compound, the viability, T/C (second compound 0.316 µM, first compound 1 µM) was 101%, the viability, T/C (second compound 0.316 µM, first compound 3.16 µM) was 88% and the viability, T/C (second compound 0.316 µM, first compound 10 µM) was 89.4%. It also gave a viability, T/C [7] of 85.4%, a viability, T/C [8] of 110% and a viability, T/C (second compound 1 µM, first compound 0.316 µM) of 95.6%. The viability, T/C (second compound 1 µM, first compound 1 µM) was 87.2%, the viability, T/C (second compound 1 µM, first compound 3.16 µM) was 86.6% and the viability, T/C (second compound 1 µM, first compound 10 µM) was 88.4%. For the same compound, the viability, T/C [9] was 74.2%, the viability, T/C [10] was 96.3% and the viability, T/C (second compound 3.16 µM, first compound 0.316 µM) was 91.8%. The viability, T/C (second compound 3.16 µM, first compound 1 µM) was 89.8%, the viability, T/C (second compound 3.16 µM, first compound 3.16 µM) was 98.1% and the viability, T/C (second compound 3.16 µM, first compound 10 µM) was 90.8%. It also gave a viability, T/C [11] of 72.5%, a viability, T/C [12] of 79.7% and a viability, T/C (second compound 10 µM, first compound 0.316 µM) of 79.9%. For the same compound, the viability, T/C (second compound 10 µM, first compound 1 µM) was 67.6%, the viability, T/C (second compound 10 µM, first compound 3.16 µM) was 81.5% and the viability, T/C (second compound 10 µM, first compound 10 µM) was 76.4%.
